Peptide text beside a SMILES is read from it.
How the values were obtained:
CD8+ T cells [1] = experiment: Enrichment of epitope-specific CD8 T cells from healthy donors, epitope-specific IFNg production (ELISA); type: cell-based, human; settings: positive co-cultures / co-cultures tested
Description: (§1) Enrichment of epitope-specific CD8 T cells was performed according to the protocol described by Butler et al., Clin Cancer Res.;13(6):1857-1867 (2007), doi:10.1158/1078-0432, but included the following amendments. CD8+ T lymphocytes were collected from PBMCs by magnetic-activated cell sorting (MACS) according to the CD8 isolation kit (Miltenyi Biotec). CD8+ T cells with >95% purity were subsequently cultured in T cell medium supplemented with IL-2 (36 IU/mL; but no gentamycin) for 1 day, after which expansion cycles started. K562ABC cells (kindly provided by prof. Bruce Levine, University of Pennsylvania, PA) were loaded with 10 μg/ml ROPN1 and/or ROPN1B peptide and incubated for 5 h at RT in serum-free medium, after which cells were washed and fixed with 0,1% paraformaldehyde. After washing, K562ABC cells were suspended at 0.1×10^6/mL and co-cultured with T cells in a 1:20 ratio. IL-2 (36 IU/mL) and IL-15 ([…]) were added at days 1 and 3 days after start of co-culture, and after 6 days, T cells were counted, suspended at 2×10^6/mL and rested for 1 day, after which the next cycle commenced (this schedule continued up to 4 or 5 cycles). Following 4 and 5 cycles, T cells were stained with pMHC multimers (HLA*0201/MLN, Immudex, Copenhagen, Denmark). pMHC-PE were pre-incubated at RT for 10 min followed by incubation with 7AAD, anti-CD3-FITC and anti-CD8-APC for 20 min. Cells were fixed with 1% paraformaldehyde and TCR expression was measured with flow cytometry and analyzed using FlowJoX software. FIG. 4A schematically depicts the procedure to enrich epitope-specific T cells, and obtainthe corresponding TCR genes.
Enriched T cells were tested for ROPN1 and/or ROPN1B epitope-specific IFNY production. To this end, T2 cells (4×10^6/mL) were loaded with peptide (20 ng/mL) for 30 min. T cells (2×10^5) were cultured in a 1:1 ratio with T2 cells in a round bottom 96-wells plate, and the next day supernatant was collected and IFN-γ production was measured with an Enzyme-linked immunosorbent assay (ELISA, Invitrogen) according to manufacturer's protocol (FIG. 4B). T2 cells without peptide were included as a negative control; and staphylococcal enterotoxin B (0.1 μg, Sigma) was used as a positive control.
Enrichment of epitope-specific T cells was performed by co-culturing naïve T cells with CD11c-positive cells that were loaded with peptide. PBMCs were passed through a cell strainer (70 μm) and used for the isolation of naïve T cells and CD11c cells. To isolate CD11c-positive cells (typically dendritic cells, DC), PBMCs were stained for 10 mM at 4° C. with Fc block (10 μL/10^7 PBMCs, BD Pharmingen, Vianen, the Netherlands), after which cells were stained with CD11c-PE antibody (10 μL/10^7 PBMCs, BD Pharmingen) for 30 mM at 4° C., washed, and incubated with PE beads (10 μL/10^7 PBMCs, Miltenyi Biotech, Bergisch Gladbach, Germany) for another […] at 4° C. After washing, cells were dissolved in magnetic-activated cell sorting (MACS) buffer and passed through a MACS LS column (Miltenyi Biotec) to positively select CD11c cells. After selection, CD11c cells were irradiated with 30 Gy, and cultured overnight in a 24-wells plate (1×10^6/mL) in RPMI medium supplemented with 1% human serum (Sanquin), 1% antibiotics, […] L-glutamine, a DC maturation cocktail (a mixture of GM-CSF (10 ng/mL, ImmunoTools, Germany), IL-4 (10 ng/mL, ImmunoTools), LPS (100 ng/mL, Invitrogen, Goteborg, Sweden) and IFNY (10 ng/mL, Preprotech, London, United Kingdom)), as well as peptide (10 pg/mL). Naïve T cells were isolated with use of the Naïve T Cell isolation kit (Miltenyi Biotec) according to the manufacturer's protocol, and suspended in RPMI medium supplemented with 5% human serum (Sanquin), 1% antibiotics, […] L-glutamine and IL-7 (5 ng/mL, BD Pharmingen). The run-through of the naïve T cell selection was frozen down and used for re-stimulation of epitope-specific T cells. […]

CD8+ T cells [2] = experiment: peptide:MHC multimer/tetramer staining of enriched T cells (flow cytometry); type: cell-based, human; settings: for pMHC staining % pMHC+ CD8+ in CD3+: Table 4, enriched T cells after enrichment cycles
Description: as §1
Following enrichment, T cells were tested for ROPN1 and/or ROPN1B epitope-specific IFNY production. To this end, T2 cells (1×10^6/mL) were loaded with peptide (20 ng/mL) for 30 min, after which T cells (1×10^5) were cultured in a 1:1 ratio with T2 cells in a round bottom 96-wells plate for 18 h. Supernatant was collected and IFN-γ production was measured with an Enzyme-linked immunosorbent assay (ELISA, BioLegend) according to the manufacturer's protocol (FIG. 9A). T2 cells loaded with an irrelevant peptide were included as a negative control. T cell IFNg production was considered epitope-specific in case levels exceeded 200 pg/ml, and levels were minimally twice as high as for irrelevant peptide (see for full listing of criteria, FIG. 8). T cells that fulfilled these criteria were stained with peptide:MHC (pMHC) tetramers to determine the frequency of epitope-specific T cells. Empty Loadable HLA Tetramers (5 μL, Tetramer shop, Kongens Lyngby, Denmark) were incubated with 0.5 μL peptide (200 μM) for 30 min on ice. Complexes of pMHC were centrifuged (3300 g, 5 min) and incubated with 0.1×10^6 T cells for 15 min at 37° C. in the dark. Next, an antibody cocktail containing CD3-FITC (1:30, BD) and CD8-APC (1:300, eBiosciences) was added and incubated for an additional 30 min at 4° C. in the dark. Finally, T cells were washed twice and fixed with 1% paraformaldehyde (PFA), after which events were acquired with FACSCelesta (BD) and analyzed using FlowJoX software.

[3] = Table 2 (Example 1), healthy donor T cells

| Compound | T cell responses observed (IFNg) against epitope (CD8+ T cells [1]; Table 4) | pMHC staining % pMHC+ CD8+ in CD3+ (CD8+ T cells [2]) [%] | T cell responses observed (IFNg) against epitope (CD8+ T cells [1]; [3]) | enriched T cells binding MLN/HLA-A2 complexes (CD8+ T cells [2]; after 4 cycles of co-culture with epitope-loaded aAPC) [%] | enriched T cells binding MLN/HLA-A2 complexes (CD8+ T cells [2]; after 5 cycles of co-culture with epitope-loaded aAPC) [%] |
| --- | --- | --- | --- | --- | --- |
| CSCC[C@H](NC(=O)[C@H](CCC(N)=O)NC(=O)[C@H](C)N)C(=O)N[C@@H](Cc1c[nH]c2ccccc12)C(=O)N[C@@H](CCCCN)C(=O)N[C@H](C(=O)N[C@H](C(=O)N[C@@H](CC(N)=O)C(=O)N[C@@H](CC(C)C)C(=O)O)C(C)C)C(C)C (H-AQMWKVVNL-OH; N-terminus and C-terminus assumed) | 2/2 co-cultures | 2.58 | – | – | – |
| CC[C@H](C)[C@H](NC(=O)[C@H](Cc1ccc(O)cc1)NC(=O)[C@@H](NC(=O)[C@H](Cc1ccc(O)cc1)NC(=O)[C@H](CC(C)C)NC(=O)[C@@H](N)Cc1ccccc1)[C@@H](C)O)C(=O)N[C@@H](C)C(=O)N[C@@H](CCC(=O)O)C(=O)N[C@H](C(=O)O)C(C)C (H-FLYTYIAEV-OH; N-terminus and C-terminus assumed) | 2/2 co-cultures | 1.34 | – | – | – |
| CC[C@H](C)[C@H](NC(=O)[C@H](Cc1ccc(O)cc1)NC(=O)[C@@H](NC(=O)[C@H](Cc1ccc(O)cc1)NC(=O)[C@H](CC(C)C)NC(=O)[C@@H](N)Cc1ccccc1)[C@@H](C)O)C(=O)N[C@@H](C)C(=O)N[C@@H](CCCCN)C(=O)N[C@H](C(=O)O)C(C)C (H-FLYTYIAKV-OH; N-terminus and C-terminus assumed) | 1/4 co-cultures | 2.76 | 1/4 co-cultures | – | – |
| CC[C@H](C)[C@H](NC(=O)[C@H](Cc1ccc(O)cc1)NC(=O)[C@H](CC(N)=O)NC(=O)[C@H](CC(C)C)NC(=O)[C@@H](N)CCSC)C(=O)N[C@@H](CCC(=O)O)C(=O)N[C@@H](CCC(N)=O)C(=O)N[C@@H](CCC(=O)O)C(=O)N[C@H](C(=O)O)C(C)C (H-MLNYIEQEV-OH; N-terminus and C-terminus assumed) | 1/3 co-cultures | 13.3 | 1/3 co-cultures | 20 | 62 |

— patent US20240131155A1, “T CELLS FOR USE IN THERAPY” (Erasmus University Medical Center Rotterdam, priority 2021, published 2024)
